Reference: US9458187B2, “Methods for treatment of inflammatory conditions using S-[4-(3-fleuro-3-methylbutyryloxy)but-2-ynyl]6α, 9α-difluoro-17α-(furan-2-yl) carbonyloxy-11β-hydroxy-16α-methyl-3-oxoandrosta-1,4-diene-17β-carbothioate” (Sun Pharma Advanced Research Company Limited, priority 2013, dated 2016)

Assay: Oral bioavailability and systemic plasma half-life
Conditions: in vivo

For `C[C@@H]1CC2C3C[C@H](F)C4=CC(=O)C=C[C@]4(C)[C@@]3(F)[C@@H](O)C[C@]2(C)[C@@]1(OC(=O)c1ccco1)C(=O)SCC#CCOC(=O)CC(C)(C)F` (stereo partly drawn) [Formula I, S-[4-(3-Fluoro-3-methylbutyryloxy)but-2-ynyl]6α,9α-difluoro-17α-(furan-2-yl)carbonyloxy-11β-hydroxy-16α-methyl-3-oxoandrosta-1,4-diene-17β-carbothioate], the systemic plasma half-life was “short systemic plasma half-life” and the oral bioavailability (po) was “low oral bioavailability”.
